Measurements: patent US10844017B2, “Biaryl compound, preparation method and use thereof” (FUDAN UNIVERSITY, priority 2017, dated 2020)

The molecules below were run against T1, RORγ receptor (B-RORγ LBD / Bioin-SRC1) (Homo sapiens, UniProt P51449) (assay: Determination of agonistic activities on RORγ receptors in vitro (dual FRET)). Conditions: average of at least two independent experiments.
T1 construct: 40 nM B-RORγ LBD solution
T1 sequence (P51449 269-508 limits assumed): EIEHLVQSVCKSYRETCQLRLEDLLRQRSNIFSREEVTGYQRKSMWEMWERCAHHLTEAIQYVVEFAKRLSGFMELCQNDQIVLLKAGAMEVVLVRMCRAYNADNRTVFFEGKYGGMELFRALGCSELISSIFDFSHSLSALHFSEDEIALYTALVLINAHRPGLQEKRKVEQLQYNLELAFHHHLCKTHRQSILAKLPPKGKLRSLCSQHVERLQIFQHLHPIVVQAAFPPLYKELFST
T1 sequence (Q15788 676-700 partner limits assumed): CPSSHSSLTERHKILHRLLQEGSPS
Type: biochemical
Protocol: Determination of Agonistic Activities of Compounds on RORγ Receptors In Vitro The agonistic activities of compounds described herein on RORγ receptor were determined by dual fluorescence resonance energy transfer (dual FRET) experiments. The agonistic activity was expressed by half maximum effect concentration (EC50).
1) Preparation of RORγ Assay Buffer
100 mL of buffer solution was well mixed with […] DTT for use.
2) Preparation of Solutions of Compounds
3) Preparation of protein mixtures a) 40 nM B-RORγ LBD solution was mixed well with 20 nM SA-APC solution and incubated for 15 minutes at room temperature. Then the resulting mixture was further mixed well with 400 nM Biotin and incubated for another 10 minutes at room temperature. […]
b) 40 nM Bioin-SRC1 solution was mixed well with 10 nM SA-eu solution and was incubated for 15 minutes at room temperature. Then the resulting mixture was further mixed well with 200 nM Biotin and was incubated for another 10 minutes at room temperature. […]
d) A mixture (25 μL) of B-RORγ LBD/SA-APC and Bioin-SRC1/SA-eu together with a test compound was added to one of the wells of a 384-well plate, and then the plate was centrifuged for one minute at 1000 rpm, and incubated at room temperature for one hour. The data were read on an Envision microplate detector and EC50 values were calculated.

First: CCS(=O)(=O)c1ccc(CC(=O)Nc2cc(Cl)c(-c3ccc(CN4CCC4)c(C#N)c3)c(Cl)c2)cc1 [Example 38, N-(4′-(Azetidin-1-ylmethyl)-2,6-dichloro-3′-cyano-[1,1′-biphenyl]-4-yl)-2-(4-(ethylsulfonyl)phenyl)acetamide]
Second: CCS(=O)(=O)c1ccc(CC(=O)Nc2cc(Cl)c(-c3ccc(CN4CCCC4)c(C#N)c3)c(Cl)c2)cc1 [Example 39, N-(2,6-Dichloro-3′-cyano-4′-(pyrrolidin-1-ylmethyl)-[1,1′-biphenyl]-4-yl)-2-(4-(ethylsulfonyl)phenyl)acetamide]
The EC50 of the first is higher: over 1000 nM for the first, 10 to 50 nM for the second. The second is the more potent here.

First: CC(C)Cc1ccc(-c2c(Cl)cc(NC(=O)c3ccccc3)cc2Cl)cc1C#N [Example 3, N-(2,6-Dichloro-3′-cyano-4′-isobutyl-[1,1′-biphenyl]-4-yl)benzamide]
Second: CC(C)Cc1ccc(-c2c(Cl)cc(NC(=O)Cc3ccccc3)cc2Cl)cc1C#N [Example 7, N-(2,6-Dichloro-3′-cyano-4′-isobutyl-[1,1′-biphenyl]-4-yl)-2-phenylacetamide]
The EC50 of the first is higher: 50 to 100 nM for the first, 10 to 50 nM for the second. The second is the more potent here.

First: CCS(=O)(=O)c1ccc(CNC(=O)c2cc(Cl)c(-c3ccc(CN(C)C)c(C#N)c3)c(Cl)c2)cc1 [Example 51, 2,6-Dichloro-3′-cyano-4′-((dimethylamino)methyl)-N-(4-(ethylsulfonyl)benzyl)-[1,1′-biphenyl]-4-carboxamide]
Second: CN(C)Cc1ccc(-c2c(Cl)cc(C(=O)NCc3ccc(S(C)(=O)=O)cc3)cc2Cl)cc1C#N [Example 52, 2,6-Dichloro-3′-cyano-4′-((dimethylamino)methyl)-N-(4-(methylsulfonyl)benzyl)-[1,1′-biphenyl]-4-carboxamide]
The EC50 of the first is lower: 100 to 500 nM for the first, 500 to 1000 nM for the second.

`CCC(=O)Nc1cc(Cl)c(-c2ccc(CC(C)C)c(C#N)c2)c(Cl)c1` [Example 1, N-(2,6-Dichloro-3′-cyano-4′-isobutyl-[1,1′-biphenyl]-4-yl)propionamide] and `CC(C)CC(=O)Nc1cc(Cl)c(-c2ccc(CC(C)C)c(C#N)c2)c(Cl)c1` [Example 4, N-(2,6-dichloro-3′-cyano-4′-isobutyl-[1,1′-biphenyl]-4-yl)-3-methylbutanamide] fall in the same range of EC50: 10 to 50 nM for the first, 10 to 50 nM for the second.

`CC(C)Cc1ccc(-c2c(Cl)cc(NC(=O)Cc3ccc(=O)[nH]c3)cc2Cl)cc1C#N` [Example 8, N-(2,6-Dichloro-3′-cyano-4′-isobutyl-[1,1′-biphenyl]-4-yl)-2-(6-oxo-1,6-dihydropyridin-3-yl)acetamide] and `CC(C)Cc1ccc(-c2c(Cl)cc(NC(=O)Cc3ccncc3)cc2Cl)cc1C#N` [Example 15, N-(2,6-Dichloro-3′-cyano-4′-isobutyl-[1,1′-biphenyl]-4-yl)-2-(pyridin-4-yl)acetamide] fall in the same range of EC50: 10 to 50 nM for the first, 10 to 50 nM for the second.

First: CC(C)Cc1ccc(-c2c(Cl)cc(NC(=O)NCc3ccc(S(C)(=O)=O)cn3)cc2Cl)cc1C#N [Example 56, 1-(2,6-Dichloro-3′-cyano-4′-isobutyl-[1,1′-biphenyl]-4-yl)-3-((5-(methylsulfonyl)pyridin-2-yl)methyl)urea]
Second: CC(C)Cc1ccc(-c2c(Cl)cc(C(=O)NCc3ccc(S(C)(=O)=O)cn3)cc2Cl)cc1C#N [Example 50, 2,6-Dichloro-3′-cyano-4′-isobutyl-N-((5-(methylsulfonyl)pyridin-2-yl)methyl)-[1,1′-biphenyl]-4-carboxamide]
The EC50 of the first is lower: 10 to 50 nM for the first, 50 to 100 nM for the second. The first is the more potent here.

First: CC(C)Cc1ccc(-c2c(Cl)cc(C(=O)NCc3ccc(S(C)(=O)=O)cc3)cc2Cl)cc1C#N [Example 48, 2,6-Dichloro-3′-cyano-4′-isobutyl-N-(4-(methylsulfonyl)benzyl)-[1,1′-biphenyl]-4-carboxamide]
Second: CC(C)Cc1ccc(-c2c(Cl)cc(NCCc3ccc(S(C)(=O)=O)cc3)cc2Cl)cc1C#N [Example 61, 2′,6′-Dichloro-4-isobutyl-4′-((4-(methylsulfonyl)phenethyl)amino)-[1,1′-biphenyl]-3-carbonitrile]
The EC50 of the first is higher: 50 to 100 nM for the first, 10 to 50 nM for the second.

`CC(C)Cc1ccc(-c2c(Cl)cc(NC(=O)Cc3cccnc3)cc2Cl)cc1C#N` [Example 14, N-(2,6-Dichloro-3′-cyano-4′-isobutyl-[1,1′-biphenyl]-4-yl)-2-(pyridin-3-yl)acetamide] and `CC(C)Cc1ccc(-c2c(Cl)cc(NC(=O)Cc3cccc(C#N)c3)cc2Cl)cc1C#N` [Example 12, 2-(3-cyanophenyl)-N-(2,6-dichloro-3′-cyano-4′-isobutyl-[1,1′-biphenyl]-4-yl)acetamide] fall in the same range of EC50: 10 to 50 nM for the first, 10 to 50 nM for the second.

First: CC(C)Cc1ccc(-c2c(Cl)cc(NC(=O)Cc3ccc(CC(=O)O)cc3)cc2Cl)cc1C#N [Example 25, 2-(4-(2-((2,6-Dichloro-3′-cyano-4′-isobutyl-[1,1′-biphenyl]-4-yl)amino)-2-oxoethyl)phenyl)acetic acid]
Second: CC(C)Cc1ccc(-c2c(Cl)cc(NC(=O)NCc3ccc(CC(=O)O)cc3)cc2Cl)cc1C#N [Example 57, 2-(4-((3-(2,6-Dichloro-3′-cyano-4′-isobutyl-[1,1′-biphenyl]-4-yl)ureido)methyl)phenyl)acetic acid]
The EC50 of the first is lower: under 10 nM for the first, 10 to 50 nM for the second.

First: CN(C)Cc1ccc(-c2c(Cl)cc(NCCc3ccc(S(C)(=O)=O)cc3)cc2Cl)cc1C#N [Example 63, 2′,6′-Dichloro-4-((dimethylamino)methyl)-4′-((4-(methylsulfonyl)phenethyl)amino)-[1,1′-biphenyl]-3-carbonitrile]
Second: CN(C)Cc1ccc(-c2c(Cl)cc(NC(=O)NCc3ccc(S(C)(=O)=O)cc3)cc2Cl)cc1C#N [Example 59, 1-(2,6-Dichloro-3′-cyano-4′-((dimethylamino)methyl)-[1,1′-biphenyl]-4-yl)-3-(4-(methylsulfonyl)benzyl)urea]
The EC50 of the first is lower: under 10 nM for the first, 10 to 50 nM for the second. The first is the more potent here.

`CCS(=O)(=O)c1ccc(CC(=O)Nc2cc(Cl)c(-c3ccc(CC(C)C)c(F)c3)c(Cl)c2)cc1` [Example 27, N-(2,6-Dichloro-3′-fluoro-4′-isobutyl-[1,1′-biphenyl]-4-yl)-2-(4-(ethylsulfonyl)phenyl)acetamide] and `CNS(=O)(=O)c1ccc(CC(=O)Nc2cc(Cl)c(-c3ccc(CC(C)C)c(C#N)c3)c(Cl)c2)cc1` [Example 22, N-(2,6-Dichloro-3′-cyano-4′-isobutyl-[1,1′-biphenyl]-4-yl)-2-(4-(N-methylsulfamoyl)phenyl)acetamide] fall in the same range of EC50: 10 to 50 nM for the first, 10 to 50 nM for the second.

`CC(C)Cc1ccc(-c2c(Cl)cc(NC(=O)Cc3ccc(C#N)cc3)cc2Cl)cc1C#N` [Example 10, 2-(4-Cyanophenyl)-N-(2,6-dichloro-3′-cyano-4′-isobutyl-[1,1′-biphenyl]-4-yl)acetamide] and `CC(C)Cc1ccc(-c2c(Cl)cc(NC(=O)Cc3ccc(P(C)(C)=O)cc3)cc2Cl)cc1C#N` [Example 23, N-(2,6-Dichloro-3′-cyano-4′-isobutyl-[1,1′-biphenyl]-4-yl)-2-(4-(dimethylphosphoryl)phenyl)acetamide] fall in the same range of EC50: 10 to 50 nM for the first, 10 to 50 nM for the second.

`CCS(=O)(=O)c1ccc(CC(=O)Nc2cc(Cl)c(-c3ccc(C=C4CCC4)c(C#N)c3)c(Cl)c2)cc1` [Example 44, N-(2,6-Dichloro-3′-cyano-4′-(cyclobutylidenemethyl)-[1,1′-biphenyl]-4-yl)-2-(4-(ethylsulfonyl)phenyl)acetamide] and `CCS(=O)(=O)c1ccc(CC(=O)Nc2cc(Cl)c(-c3ccc(CC4CCCC4)c(C#N)c3)c(Cl)c2)cc1` [Example 45, N-(2,6-Dichloro-3′-cyano-4′-(cyclopentylmethyl)-[1,1′-biphenyl]-4-yl)-2-(4-(ethylsulfonyl)phenyl)acetamide] fall in the same range of EC50: 10 to 50 nM for the first, 10 to 50 nM for the second.

First: CCS(=O)(=O)c1ccc(CC(=O)Nc2cc(Cl)c(-c3ccc(CC(C)C)cc3C#N)c(Cl)c2)cc1 [Example 28, N-(2,6-dichloro-2′-cyano-4′-isobutyl-[1,1′-biphenyl]-4-yl)-2-(4-(ethylsulfonyl)phenyl)acetamide]
Second: CCS(=O)(=O)c1ccc(CC(=O)Nc2ccc(-c3ccc(CC(C)C)c(C#N)c3)c(Cl)c2)cc1 [Example 31, N-(2-Chloro-3′-cyano-4′-isobutyl-[1,1′-biphenyl]-4-yl)-2-(4-(ethylsulfonyl)phenyl)acetamide]
The EC50 of the first is higher: 10 to 50 nM for the first, under 10 nM for the second.

`CCS(=O)(=O)c1ccc(CC(=O)Nc2ccc(-c3ccc(CC(C)C)cc3C(F)(F)F)c(Cl)c2)cc1` [Example 29, N-(2-chloro-4′-isobutyl-2′-(trifluoromethyl)-[1,1′-biphenyl]-4-yl)-2-(4-(ethylsulfonyl)phenyl)acetamide] and `CCS(=O)(=O)c1ccc(CC(=O)Nc2ccc(-c3ccc(CC(C)C)cc3OC(F)(F)F)c(Cl)c2)cc1` [Example 30, N-(2-Chloro-4′-isobutyl-2′-(trifluoromethoxy)-[1,1′-biphenyl]-4-yl)-2-(4-(ethylsulfonyl)phenyl)acetamide] fall in the same range of EC50: 10 to 50 nM for the first, 10 to 50 nM for the second.

Molecule `CC(C)Cc1ccc(-c2c(Cl)cc(NC(=O)Cc3ccnn3C)cc2Cl)cc1C#N` [Example 9B, N-(2,6-dichloro-3′-cyano-4′-isobutyl-[1,1′-biphenyl]-4-yl)-2-(1-methyl-1H-pyrazol-5-yl)acetamide] has an EC50 of 10 to 50 nM.
